Source: patent US6849641B1, “Azaindole tyrosine kinase inhibitors” (Sugen, Inc., priority 1997, dated 2005)

Key:
[1] = target: T1, FLK-1 receptor (Mus musculus, UniProt P35918); assay: FLK-1 ELISA (kinase activity of the FLK-1 receptor in cells engineered to express Flk-1); type: cell-based; conditions: NIH3T3 C7#3 cells (FLK-1 expressing), VEGF stimulated
T1 construct: expressed in transfected cells; host or cells: NIH3T3 C7#3 cells
Procedure: An ELISA assay is conducted to measure the kinase activity of the FLK-1 receptor and more specifically, the inhibition or activation of TK activity on the FLK-1 receptor. Specifically, the following assay can be conducted to measure kinase activity of the FLK-1 receptor in cells genetically engineered to express Flk-1.
Materials. The following reagents and supplies are used: • a. Corning 96-well ELISA plates (Corning Catalog No. 25805-96); • b. Cappel goat anti-rabbit IgG (catalog no. 55641); • c. PBS (Gibco Catalog No. 450-1300EB); • d. TBSW Buffer (50 mM Tris (pH 7.2), 150 mM NaCl and 0.1% Tween-20); • e. Ethanolamine stock (10% ethanolamine (pH 7.0), stored at 4° C.); • f. HNTG buffer (20 mM HEPES buffer (pH 7.5), 150 mM NaCl, 0.2% Triton X-100, and 10% glycerol); • g. EDTA (0.5 M (pH 7.0) as a 100× stock); • h. Sodium orthovanadate (0.5 M as a 100× stock); • i. Sodium pyrophosphate (0.2 M as a 100× stock); • j. NUNC 96 well V bottom polypropylene plates (Applied Scientific Catalog No. AS-72092); • k. NIH3T3 C7#3 Cells (FLK-1 expressing cells); • l. DMEM with 1× high glucose L-Glutamine (catalog No. 11965-050); • m. FBS, Gibco (catalog no. 16000-028); • n. L-glutamine, Gibco (catalog no. 25030-016); • o. VEGF, PeproTech, Inc. (catalog no. 100-20)(kept as 1 μg/100 μL stock in Milli-Q dH2O and stored at −20° C.; • p. Affinity purified anti-FLK-1 antiserum; • q. UB40 monoclonal antibody specific for phosphotyrosine (see, Fendley, et al., 1990, Cancer Research50:1550-1558); • r. EIA grade Goat anti-mouse IgG-POD (BioRad catalog no. 172-1011); • s. 2,2-azino-bis(3-ethylbenz-thiazoline-6-sulfonic acid (ABTS) solution (100 mM citric acid (anhydrous), 250 mM Na2HPO4 (pH 4.0), 0.5 mg/mL ABTS (Sigma catalog no. A-1888)), solution should be stored in dark at 4° C. until ready for use; • t. H2O2 (30% solution) (Fisher catalog no. H325); • u. ABTS/H2O2 (15mL ABTS solution, 2 μL H2O2) prepared 5 minutes before use and left at room temperature; • v. 0.2 M HCl stock in H2O; • w. dimethylsulfoxide (100%)(Sigma Catalog No. D-8418); and • y. Trypsin-EDTA (Gibco BRL Catalog No. 25200-049).
Protocol. The following protocol can be used for conducting the assay:
1. Coat Corning 96-well ELISA plates with 1.0 μg per well Cappel Anti-rabbit IgG antibody in 0.1 M Na2CO3 pH 9.6. Bring final volume to 150 μL per well. Coat plates overnight at 4° C. Plates can be kept up to two weeks when stored at 4° C.
2. Grow cells in Growth media (DMEM, supplemented with 2.0 mM L-Glutamine, 10% FBS) in suitable culture dishes until confluent at 37° C., 5% CO2.
3. Harvest cells by trypsinization and seed in Corning 25850 polystyrene 96-well round bottom cell plates, 25.000 cells/well in 200 μL of growth media.
4. Grow cells at least one day at 37° C., 5% CO2.
5. Wash cells with D-PBS 1×.
6. […]

[2] = target: T2, human EGF-R (Homo sapiens, UniProt P00533); assay: EGF Receptor ELISA (EGF receptor kinase activity in cells engineered to express human EGF-R); type: cell-based; conditions: NIH 3T3/C7 cell line, EGF stimulated
T2 construct: expressed in transfected cells; host or cells: NIH 3T3/C7 cell line
T2 sequence (P00533 25-1210): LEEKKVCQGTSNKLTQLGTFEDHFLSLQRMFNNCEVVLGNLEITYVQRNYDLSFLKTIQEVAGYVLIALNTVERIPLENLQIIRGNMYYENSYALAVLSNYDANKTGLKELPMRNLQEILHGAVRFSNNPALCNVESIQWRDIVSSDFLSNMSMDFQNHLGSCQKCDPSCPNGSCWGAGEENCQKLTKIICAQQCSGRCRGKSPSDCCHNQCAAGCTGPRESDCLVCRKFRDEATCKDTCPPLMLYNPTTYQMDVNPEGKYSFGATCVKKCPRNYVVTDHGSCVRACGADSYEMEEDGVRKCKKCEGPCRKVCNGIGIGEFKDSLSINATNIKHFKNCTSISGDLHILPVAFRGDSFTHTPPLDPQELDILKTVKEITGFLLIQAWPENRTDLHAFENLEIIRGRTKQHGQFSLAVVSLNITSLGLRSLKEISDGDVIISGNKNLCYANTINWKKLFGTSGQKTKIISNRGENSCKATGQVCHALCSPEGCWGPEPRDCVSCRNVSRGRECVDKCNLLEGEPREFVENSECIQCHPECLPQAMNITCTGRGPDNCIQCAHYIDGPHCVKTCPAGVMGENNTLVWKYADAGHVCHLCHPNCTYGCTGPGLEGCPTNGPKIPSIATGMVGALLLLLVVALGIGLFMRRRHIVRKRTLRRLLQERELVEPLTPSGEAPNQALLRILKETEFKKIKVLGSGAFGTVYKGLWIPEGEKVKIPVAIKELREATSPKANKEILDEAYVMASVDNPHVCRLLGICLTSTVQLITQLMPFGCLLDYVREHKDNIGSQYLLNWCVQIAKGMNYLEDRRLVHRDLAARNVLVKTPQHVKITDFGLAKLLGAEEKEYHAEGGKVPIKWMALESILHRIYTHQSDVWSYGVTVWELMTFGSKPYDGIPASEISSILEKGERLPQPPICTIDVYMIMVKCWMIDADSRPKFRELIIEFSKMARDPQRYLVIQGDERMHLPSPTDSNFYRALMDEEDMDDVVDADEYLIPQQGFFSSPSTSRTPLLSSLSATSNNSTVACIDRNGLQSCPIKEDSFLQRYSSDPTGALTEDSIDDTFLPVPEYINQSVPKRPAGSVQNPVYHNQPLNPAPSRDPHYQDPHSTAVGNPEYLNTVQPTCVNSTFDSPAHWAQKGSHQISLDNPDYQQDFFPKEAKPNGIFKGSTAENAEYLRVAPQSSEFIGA
Procedure: EGF Receptor kinase activity in cells genetically engineered to express human EGF-R can be measured as described below:
Materiala and Reagents. The following materials and reagents are used
a. EGF Ligand: stock concentration=16.5 μM; EGF 201, TOYOBO, Co., Ltd. Japan.
b. 05-101 (UBI) (a monoclonal antibody recognizing an EGFR extracellular domain).
C. Anti-phosphotyosine antibody (anti-Ptyr) (polyclonal).
d. Detection antibody: Goat anti-rabbit lgG horse radish peroxidase conjugate, TAGO, Inc., Burlingame, Calif.
h. Stock reagents of: • EDTA 100 mM pR 7.0 • Na3VO4 0.5 M • Na4(P2O7) 0.2 M
Procedure. The following protocol is used:
1. Coat ELISA plates (Corning, 96 well, Cat. #25805-96) with 05-101 antibody at 0.5 μg per well in PBS, 150 μL final volume/well, and store overnight at 4° C. Coated plates are good for up to 10 days when stored at 4° C.
2. On day of use, remove coating buffer and replace with blocking buffer (5% Carnation Instant NonFat Dry Milk in PBS). Incubate the plate, shaking, at room temperature (about 23° C. to 25° C) for 30 minutes. Just prior to use, remove blocking buffer and wash plate 4 times with TBST buffer.
1. NIH 3T3/C7 cell line (Honegger, et al., Cell 51:199-209, 1987) can be use for this assay.
2. Choose dishes having 80-90% confluence for the experiment. Trypsinize cells and stop reaction by adding 10% CS DMEM medium. Suspend cells in DMEM medium (10% CS DMEM medium) and centrifuge once at 1000 rpm at room temperature for 5 minutes.
3. Resuspend cells in seeding medium (DMEM, 0.5% bovine serum), and count the cells using trypan blue. Viability above 90% is acceptable. Seed cells in DMEM medium (0.5% bovine serum) at a density of 10,000 cells per well, 100 μL per well, in a 96 well microtiter plate. Incubate seeded cells in 5% CO2 at 37° C. for about 40 hours.
1. Check seeded cells for contamination using an inverted microscope. Dilute drug stock (10 mg/mL in DMSO) 1:10 in DMEM medium, then transfer 5 μL to a test well for a final drug dilution of 1:200 and a final DMSO concentration of 1%. Control wells receive DMSO alone. Incubate in 5% CO2 at 37° C. for one hour.
2. Prepare EGF ligand: dilute stock EGF in DMEM so that upon transfer of 10 μL dilute EGF (1:12 dilution), 25 nM final concentration is attained.
3. Prepare fresh 10 mL HNTG* sufficient for 100 μL per well wherein HNTG* comprises: HNTG stock (2.0 mL), milli-Q H2O (7.3 mL), EDTA, 100 mM, pH 7.0 (0.5 mL), Na3VO4 0.5 M (0.1 mL) and Na4(P2O7), 0.2 M (0.1 mL).
5. After two hours incubation with drug, add prepared EGF ligand to cells, 10 μL per well, to yield a final concentration of 25 nM. Control wells receive DMEM alone. Incubate, shaking, at room temperature, for 5 minutes.
6. Remove drug, EGF, and DMEM. Wash cells twice with PBS. Transfer HNTG* to cells, 100 μL per well. Place on ice for 5 minutes. […]

T1 sequence (P35918 20-1345): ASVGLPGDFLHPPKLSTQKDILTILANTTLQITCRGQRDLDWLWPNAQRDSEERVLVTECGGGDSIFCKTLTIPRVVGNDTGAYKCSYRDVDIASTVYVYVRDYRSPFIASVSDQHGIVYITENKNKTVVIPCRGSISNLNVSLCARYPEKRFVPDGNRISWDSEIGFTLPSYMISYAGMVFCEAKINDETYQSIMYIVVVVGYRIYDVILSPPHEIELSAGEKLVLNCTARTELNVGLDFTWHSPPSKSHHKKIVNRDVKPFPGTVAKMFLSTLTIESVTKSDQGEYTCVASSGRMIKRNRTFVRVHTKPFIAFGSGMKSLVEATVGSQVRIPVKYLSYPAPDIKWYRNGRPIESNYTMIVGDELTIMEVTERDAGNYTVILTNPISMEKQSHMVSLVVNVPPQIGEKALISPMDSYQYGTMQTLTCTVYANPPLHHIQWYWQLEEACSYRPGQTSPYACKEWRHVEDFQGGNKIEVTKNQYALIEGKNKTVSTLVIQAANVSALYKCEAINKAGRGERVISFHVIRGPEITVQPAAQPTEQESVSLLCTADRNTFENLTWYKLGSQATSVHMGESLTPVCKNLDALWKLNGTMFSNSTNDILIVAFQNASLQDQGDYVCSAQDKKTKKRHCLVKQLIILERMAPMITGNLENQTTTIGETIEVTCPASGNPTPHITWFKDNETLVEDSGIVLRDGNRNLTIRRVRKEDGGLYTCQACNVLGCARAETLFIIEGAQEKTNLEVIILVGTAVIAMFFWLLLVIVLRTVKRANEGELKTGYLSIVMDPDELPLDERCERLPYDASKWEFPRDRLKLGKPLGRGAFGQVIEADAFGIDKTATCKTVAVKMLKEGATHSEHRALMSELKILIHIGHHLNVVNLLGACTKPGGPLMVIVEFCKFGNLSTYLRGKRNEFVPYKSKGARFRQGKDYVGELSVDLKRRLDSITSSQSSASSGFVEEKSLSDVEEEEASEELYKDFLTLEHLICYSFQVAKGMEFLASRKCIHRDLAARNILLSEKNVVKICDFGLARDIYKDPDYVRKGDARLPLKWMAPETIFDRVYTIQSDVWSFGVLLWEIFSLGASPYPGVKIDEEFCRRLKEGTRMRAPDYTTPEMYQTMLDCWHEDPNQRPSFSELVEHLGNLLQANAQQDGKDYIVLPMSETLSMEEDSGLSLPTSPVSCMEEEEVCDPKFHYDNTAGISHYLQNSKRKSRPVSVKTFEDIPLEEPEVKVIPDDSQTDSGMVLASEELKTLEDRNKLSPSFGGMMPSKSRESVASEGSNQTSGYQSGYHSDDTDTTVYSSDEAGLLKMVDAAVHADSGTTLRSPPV

Compound | IC50 [1] | IC50 [2]
O=C1Nc2ncccc2C1=Cc1cnc[nH]1 [3-(3H-imidazol-4-ylmethylene)-1,3-dihydro-pyrrolo[2,3-b]pyridin-2-one] | 17.6 µM | > 50 µM
Cc1cc(C)c(C=C2C(=O)Nc3ncccc32)[nH]1 [3-(3,5-dimethyl-1H-pyrrol-2-ylmethylene)-1,3-dihydro-pyrrolo[2,3-b]pyridin-2-one] | 2.06 µM | > 100 µM
Cc1c(CCC(=O)O)c[nH]c1C=C1C(=O)Nc2ncccc21 [3-[4-methyl-5-(2-oxo-1,2-dihydro-pyrrolo[2,3-b]pyridin-3-ylidenemethyl)-1H-pyrrol-3-yl]-propionic acid] | 0.96 µM | > 25 µM
Cc1[nH]c(C=C2C(=O)Nc3ncccc32)c(C)c1CCC(=O)O [3-[2,4-dimethyl-5-(2-oxo-1,2-dihydro-pyrrolo[2,3-b]pyridin-3-ylidenemethyl)-1H-pyrrol-3-yl]-propionic acid] | 0.15 µM | > 50 µM
